Measured values reported in patent US20220370543A1, “METHODS OF TREATMENT FOR MODIFYING HEMODYNAMICS” (EBI ANTI SEPSIS B.V., priority 2019, published 2022).
Entries after “also recorded” stand apart in the source; their conditions may differ. Read-outs that look alike come from different tables or passages of the source. Peptide text beside a SMILES is read from it.

Columns and labels:
[1] = Solubility measurements / aggregation points of AQGV salts
Excerpt: At first attempts were made to mix a solution of the free base and an acid in order to achieve a concentrated DMSO solution of the salt and subsequently dilute this in water in order to determine solubility. […] It was decided to determine the solubility of the salts required by dilution of known amount of salts (not soluble) till a clear solution is obtained.

[2] = test system: patients undergoing on-pump coronary artery bypass grafting (CABG); test: EASI phase II study: safety, adverse events; assay type: in vivo, human
Method: During cardiac surgery, 180 patients received (double-blinded, placebo-controlled, randomized) 90 mg/kg/hour EA-230 or placebo. The primary endpoint was safety. Efficacy was assessed by immunomodulation (plasma interleukin (IL)-6 concentrations), renal function (glomerular filtration rate using iohexol and creatinine [GFRiohexol, eGFRMDRD] and the incidence of acute kidney injury [AKI, RIFLE criteria]), cardiovascular effects (fluid balance, vasoactive agents) and general outcome (length-of-stay).
A prospective, randomized, double-blind, placebo-controlled study was performed in which 180 elective patients, undergoing on-pump coronary artery bypass grafting, with or without concomitant valve surgery, were enrolled. Patients were randomized in a 1:1 ratio and received either EA-230, 90 mg/kg/hour, or a placebo. These were infused at the start of the surgical procedure until the end of the use of the cardiopulmonary bypass. The main focus in this first-in-patient study was on safety and tolerability of EA-230. The primary efficacy endpoint was the modulation of the inflammatory response by EA-230 quantified as the change in interleukin-6 plasma concentrations after surgery. A key secondary endpoint was the effect of EA-230 on renal function.
The present study was a single-center, prospective, double-blind, placebo-controlled, randomized, single-dose phase II study. It has an adaptive design to evaluate the safety and immunomodulatory effects of EA-230 in patients undergoing on-pump cardiac surgery for coronary artery bypass grafting (CABG) with or without concomitant valve surgery. 180 eligible patients were included and were randomized to receive either active or placebo treatment in a 1:1 ratio. This was a first-in-patient safety and tolerability study, of which the primary efficacy objective was to assess the immunomodulatory effects of EA-230. The key-secondary efficacy endpoint was the effect of EA-230 on renal function. This study was described in accordance with the Standard Protocol Items: Recommendations for Interventional Trial (SPIRIT) guidelines, and registered at clinicaltrials.gov under number NCT03145220.
(§1) Intravenous infusion of EA-230, 90 mg/kg/hour, or placebo, was initiated at the moment of first surgical incision using an automated infusion pump. Infusion rate was set at 250 ml/hour, and infusion was continued until cessation of the CPB, or after 4 hours of continuous infusion, whichever comes first.
All AEs were judged by the investigators with regard to severity (“mild, moderate, or severe”) according to Common Terminology Criteria for Adverse Events guidelines 4.030 and their perceived relation to the study drug (“definitely, probably, possibly, or unrelated/unlikely to be related”). SAEs or SUSARs include death, life-threatening disease, persistent and/or significant disability and/or incapacity, and hospitalization and/or prolongation of inpatient hospitalization.

[3] = EASI phase II study: pharmacokinetics; assay type: in vivo; settings: human; for Cmax: in vivo, iv, 90 mg/kg, Phase II trial, 90 mg/kg/hour i.v. infusion
Method: as §1

[4] = 90 mg/kg/hour i.v. during CABG surgery

Nc1ncnc2c1ncn2[C@@H]1O[C@H](COP(=O)(O)O)[C@@H](O)[C@H]1O [adenosine-monophosphate]
Clear solution on adding 0.9% NaCl [1]: no clear solution could be obtained

CC(C)[C@H](NC(=O)CNC(=O)[C@H](CCC(N)=O)NC(=O)[C@H](C)N)C(=O)O [EA-230, AQGV] (H-AQGV-OH)
Adverse events compared with placebo [2, 4]: less (serious) adverse events and less mayor clinical adverse events | Patients suffering from (adverse) fluid retention compared with placebo [2, 4]: significantly less patients suffering from fluid retention; also recorded: significant reduction of adverse fluid retention | AE of mild intensity: (%) of patients ([2]; EASI-study, N = 91): (83.5) % | AE of mild intensity: e (number of events) ([2]; EASI-study, N = 91): 188 | AE of mild intensity: n (number of patients experiencing the event) ([2]; EASI-study, N = 91): 76 | AE of moderate intensity: (%) of patients ([2]; EASI-study, N = 91): (24.2) % | AE of moderate intensity: e (number of events) ([2]; EASI-study, N = 91): 23 | AE of moderate intensity: n (number of patients experiencing the event) ([2]; EASI-study, N = 91): 22 | AE of severe intensity: (%) of patients ([2]; EASI-study, N = 91): (5.5) % | AE of severe intensity: e (number of events) ([2]; EASI-study, N = 91): 6 | AE of severe intensity: n (number of patients experiencing the event) ([2]; EASI-study, N = 91): 5 | Anemia: (%) of patients ([2]; EASI-study, N = 91): (5.5) % | Anemia: e (number of events) ([2]; EASI-study, N = 91): 5 | Anemia: n (number of patients experiencing the event) ([2]; EASI-study, N = 91): 5 | Any AE: (%) of patients ([2]; EASI-study, N = 91): (85.7) % | Any AE: n (number of patients experiencing the event) ([2]; EASI-study, N = 91): 78 | Any SAE: (%) of patients ([2]; EASI-study, N = 91): (13.2) % | Any SAE: e (number of events) ([2]; EASI-study, N = 91): 23 | Any SAE: n (number of patients experiencing the event) ([2]; EASI-study, N = 91): 12 | Any SUSAR: (%) of patients ([2]; EASI-study, N = 91): (0) % | Any SUSAR: e (number of events) ([2]; EASI-study, N = 91): 0 | Any SUSAR: n (number of patients experiencing the event) ([2]; EASI-study, N = 91): 0 | Blood and lymphatic system disorders, Overall: (%) of patients ([2]; EASI-study, N = 91): (5.5) % | Blood and lymphatic system disorders, Overall: e (number of events) ([2]; EASI-study, N = 91): 6 | Blood and lymphatic system disorders, Overall: n (number of patients experiencing the event) ([2]; EASI-study, N = 91): 5 | Delirium: (%) of patients ([2]; EASI-study, N = 91): (5.5) % | Delirium: e (number of events) ([2]; EASI-study, N = 91): 5 | Delirium: n (number of patients experiencing the event) ([2]; EASI-study, N = 91): 5 | Fluid retention: (%) of patients ([2]; EASI-study, N = 91): (2.2) % | Fluid retention: e (number of events) ([2]; EASI-study, N = 91): 2 | Gastrointestinal disorders, Overall: (%) of patients ([2]; EASI-study, N = 91): (23.1) % | Gastrointestinal disorders, Overall: e (number of events) ([2]; EASI-study, N = 91): 27 | Gastrointestinal disorders, Overall: n (number of patients experiencing the event) ([2]; EASI-study, N = 91): 21 | Hemorrhagic diathesis: (%) of patients ([2]; EASI-study, N = 91): (1.1) % | Hemorrhagic diathesis: e (number of events) ([2]; EASI-study, N = 91): 1 | Hemorrhagic diathesis: n (number of patients experiencing the event) ([2]; EASI-study, N = 91): 1 | Infections and infestations, Overall: (%) of patients ([2]; EASI-study, N = 91): (14.3) % | Infections and infestations, Overall: e (number of events) ([2]; EASI-study, N = 91): 15 | Infections and infestations, Overall: n (number of patients experiencing the event) ([2]; EASI-study, N = 91): 13 | Metabolism and nutrition disorders, Overall: (%) of patients ([2]; EASI-study, N = 91): (11) % | Metabolism and nutrition disorders, Overall: e (number of events) ([2]; EASI-study, N = 91): 10 | Metabolism and nutrition disorders, Overall: n (number of patients experiencing the event) ([2]; EASI-study, N = 91): 10 | Nausea: (%) of patients ([2]; EASI-study, N = 91): (16.5) % | Nausea: e (number of events) ([2]; EASI-study, N = 91): 15 | Nausea: n (number of patients experiencing the event) ([2]; EASI-study, N = 91): 15 | Psychiatric disorders, Overall: (%) of patients ([2]; EASI-study, N = 91): (9.9) % | Psychiatric disorders, Overall: e (number of events) ([2]; EASI-study, N = 91): 9 | Psychiatric disorders, Overall: n (number of patients experiencing the event) ([2]; EASI-study, N = 91): 9 | Renal and urinary disorders, Overall: (%) of patients ([2]; EASI-study, N = 91): (4.4) % | Renal and urinary disorders, Overall: e (number of events) ([2]; EASI-study, N = 91): 4 | Renal and urinary disorders, Overall: n (number of patients experiencing the event) ([2]; EASI-study, N = 91): 4 | Safety and tolerability ([2]; continuous infusion 90 mg/kg/hour up to 4 hours, elective CABG surgery): safe and No safety concerns emerged and well tolerated and showed an excellent safety profile | Time to clearance from the circulation when infusion is terminated [3]: 5 to 10 min | Cmax ([3]; read-out: Arterial Cmax, range): 12500 to 57500 ng/mL | Cmax ([3]; read-out: Mean arterial Cmax): 30500 ng/mL | Cmax ([3]; read-out: Mean venous Cmax): 68400 ng/mL | Cmax ([3]; read-out: Venous Cmax, range): 19600 to 113000 ng/mL

adenosine
Clear solution on adding 0.9% NaCl ([1]; 1 or 0.5 mmol salt, small amounts of 0.9% NaCl added): no clear solution could be obtained

CC(C)[C@H](NC(=O)CNC(=O)[C@H](CCC(N)=O)NC(=O)[C@H](C)N)C(=O)O [AQGV-citrate] (H-AQGV-OH)
Behaviour of highly concentrated solution ([1]; 0.9% NaCl, listed as Citric acid): does not crystallize or aggregate but tend to form a highly viscous solution | Behaviour of highly concentrated solution ([1]; 0.9% NaCl, listed as citric acid): remains clear but got very thick/viscous | Solubility in DMSO ([1]; free base mixed with acid in DMSO): did not dissolve in DMSO at all | Total amount dissolved (clear solution) ([1]; in 0.5 mL 0.9% NaCl): 2.75 mmol

O=C(O)/C=C\C(=O)O [maleic acid]
Solubility compared to AQGV-Ac ([1]; 0.9% NaCl): lower solubility
